Results from patent publication US20240208968A1, “ALPHA V BETA 6 AND ALPHA V BETA 1 INTEGRIN INHIBITORS AND USES THEREOF” (DiCE Molecules SV, Inc., priority 2021, published 2024).
pIC50: −log10 of the molar value. Where a name gives a salt, the structure may show the parent alone.

Legend:
αvβ1 = αvβ1 (Homo sapiens, UniProt P05556+P06756); test: Solid Phase Integrin αvβ1 Assay; assay type: binding
Method in brief: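 Compound competes for αvβ1 binding to immobilized TGFb1-LAP (1 µg/mL coat) in Mn2+ (1 mM MnCl2), 2% BSA binding buffer over 90 min at room temperature, integrin added at 0.2 µg/mL. Read-out: streptavidin-HRP/TMB; IC50 from Levenberg-Marquardt four-parameter fit.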

αvβ6 = αvβ6 (Homo sapiens, UniProt P06756+P18564); test: Solid Phase Integrin αvβ6 Assay; assay type: binding
Method in brief: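 Inhibition of αvβ6 binding to immobilized recombinant TGFb1-LAP (1 μg/mL coating), 1 h at room temperature with 1 mM MnCl2 in BSA/TBST buffer, integrin diluted to 0.2 μg/mL before addition. Streptavidin-HRP/TMB read-out; four-parameter logistic fitting gave IC50.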

αvβ1, sequence (P06756 31-992 limits assumed): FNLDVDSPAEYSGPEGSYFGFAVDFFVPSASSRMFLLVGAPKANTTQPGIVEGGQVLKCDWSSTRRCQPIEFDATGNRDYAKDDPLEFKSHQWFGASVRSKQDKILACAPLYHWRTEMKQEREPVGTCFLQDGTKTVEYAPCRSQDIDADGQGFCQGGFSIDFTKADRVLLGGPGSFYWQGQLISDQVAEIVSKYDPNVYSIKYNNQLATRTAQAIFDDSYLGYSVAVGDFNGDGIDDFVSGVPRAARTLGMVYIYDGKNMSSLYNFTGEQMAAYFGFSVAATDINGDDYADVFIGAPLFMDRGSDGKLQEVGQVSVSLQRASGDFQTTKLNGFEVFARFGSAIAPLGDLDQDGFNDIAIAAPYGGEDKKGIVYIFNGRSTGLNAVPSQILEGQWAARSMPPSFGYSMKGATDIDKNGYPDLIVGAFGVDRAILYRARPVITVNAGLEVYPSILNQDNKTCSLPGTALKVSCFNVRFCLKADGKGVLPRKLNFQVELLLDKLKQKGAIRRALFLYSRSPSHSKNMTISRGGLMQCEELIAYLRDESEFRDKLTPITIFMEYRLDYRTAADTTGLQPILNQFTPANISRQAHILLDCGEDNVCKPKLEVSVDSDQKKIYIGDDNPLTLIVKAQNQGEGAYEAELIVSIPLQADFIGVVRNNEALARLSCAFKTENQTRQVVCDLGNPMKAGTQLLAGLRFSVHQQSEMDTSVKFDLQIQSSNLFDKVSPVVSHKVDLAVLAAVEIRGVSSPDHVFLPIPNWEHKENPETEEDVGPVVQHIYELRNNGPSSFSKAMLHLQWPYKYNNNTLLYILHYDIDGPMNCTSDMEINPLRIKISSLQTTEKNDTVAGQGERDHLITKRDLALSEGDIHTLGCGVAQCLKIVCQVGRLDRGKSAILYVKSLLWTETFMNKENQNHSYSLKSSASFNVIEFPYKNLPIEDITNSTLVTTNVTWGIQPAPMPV
αvβ1, sequence (P05556 21-728 limits assumed): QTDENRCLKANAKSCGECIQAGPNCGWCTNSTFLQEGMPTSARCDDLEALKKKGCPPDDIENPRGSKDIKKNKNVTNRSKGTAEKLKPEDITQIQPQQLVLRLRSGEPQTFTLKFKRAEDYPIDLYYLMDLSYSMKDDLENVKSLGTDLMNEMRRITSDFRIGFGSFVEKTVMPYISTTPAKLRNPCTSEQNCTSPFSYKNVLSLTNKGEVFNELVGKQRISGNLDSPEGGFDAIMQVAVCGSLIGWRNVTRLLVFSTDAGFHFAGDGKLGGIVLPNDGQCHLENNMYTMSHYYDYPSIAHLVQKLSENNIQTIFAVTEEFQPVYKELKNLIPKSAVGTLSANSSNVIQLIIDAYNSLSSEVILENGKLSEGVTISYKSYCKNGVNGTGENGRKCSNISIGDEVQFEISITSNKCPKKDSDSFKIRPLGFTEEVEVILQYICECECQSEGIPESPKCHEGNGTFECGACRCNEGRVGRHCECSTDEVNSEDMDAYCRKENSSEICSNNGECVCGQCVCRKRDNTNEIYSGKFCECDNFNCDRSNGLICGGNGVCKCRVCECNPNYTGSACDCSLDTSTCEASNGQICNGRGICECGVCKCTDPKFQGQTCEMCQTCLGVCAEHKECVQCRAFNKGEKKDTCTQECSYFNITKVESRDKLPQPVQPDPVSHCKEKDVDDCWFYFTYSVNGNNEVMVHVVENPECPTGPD
αvβ6, sequence (P06756 31-992 limits assumed): as the sequence (P06756 31-992 limits assumed) above
αvβ6, sequence (P18564 22-707 limits assumed): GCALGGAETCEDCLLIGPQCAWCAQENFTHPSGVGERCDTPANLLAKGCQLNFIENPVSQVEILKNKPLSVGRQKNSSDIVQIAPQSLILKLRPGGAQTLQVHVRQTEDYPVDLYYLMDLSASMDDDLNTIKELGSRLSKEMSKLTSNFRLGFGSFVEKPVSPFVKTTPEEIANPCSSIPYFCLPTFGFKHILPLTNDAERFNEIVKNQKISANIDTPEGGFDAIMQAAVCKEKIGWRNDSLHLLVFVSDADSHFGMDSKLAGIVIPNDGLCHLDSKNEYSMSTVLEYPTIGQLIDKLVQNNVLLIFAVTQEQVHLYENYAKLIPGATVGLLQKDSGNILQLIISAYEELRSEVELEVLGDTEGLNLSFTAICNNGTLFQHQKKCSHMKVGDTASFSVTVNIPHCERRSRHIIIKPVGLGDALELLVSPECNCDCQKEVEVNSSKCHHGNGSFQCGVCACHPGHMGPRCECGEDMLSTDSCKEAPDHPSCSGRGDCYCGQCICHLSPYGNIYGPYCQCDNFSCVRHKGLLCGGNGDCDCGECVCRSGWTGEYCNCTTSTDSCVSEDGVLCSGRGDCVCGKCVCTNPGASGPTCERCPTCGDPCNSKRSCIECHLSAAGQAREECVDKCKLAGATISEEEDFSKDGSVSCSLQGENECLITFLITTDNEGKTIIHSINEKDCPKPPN

Row | pIC50 (αvβ1) | pIC50 (αvβ6) | Compound
1 | > 7.00 | < 6.00 | O=C(O)C[C@@H](CC(=O)N[C@@H]1CCN(CCCCc2ccc3c(n2)NCCC3)C1)c1ccccc1 [Compound 414]
2 | 6.00 to 7.00 | > 7.00 | Cc1cc(C)n(-c2cccc([C@H](CO[C@@H]3CCCN(CCCc4ccc5c(n4)NCCC5)C3)CC(=O)O)c2)n1 [Compound 575]
3 | 6.00 to 7.00 | > 7.00 | O=C(O)[C@@H](CCO[C@@H]1CCCN(CCCc2ccc3c(n2)NCCC3)C1)c1cccc2c1cnn2CC1CC1 [Compound 486]
4 | > 7.00 | > 7.00 | C[C@H]1OCCN(c2cccc([C@H](CC(=O)O)NC(=O)[C@@H]3CCCN(CCCc4ccc5c(n4)NCCC5)C3)c2)[C@H]1C [Compound 582]
5 | 6.00 to 7.00 | 6.00 to 7.00 | O=C(O)CC(CO[C@@H]1CCCN(CCc2ccc3c(n2)NCCC3)C1)c1ccccc1 (stereo partly drawn) [Compound 335]
6 | > 7.00 | > 7.00 | O=C(CC[C@H](NC(=O)C12CCC(CC1)CC2)C(=O)O)N[C@@H]1CCN(C(=O)CCCc2ccc3c(n2)NCCC3)C1 [Compound 428]
7 | > 7.00 | > 7.00 | C[C@@H]1CN(c2cccc([C@H](CC(=O)O)NC(=O)[C@@H]3CCCN(CCCc4ccc5c(n4)NCCC5)C3)c2)C[C@H](C)O1 [Compound 617]
8 | 6.00 to 7.00 | < 6.00 | O=C(NC[C@@H](C(=O)O)c1cccc2c1CCCC2)[C@@H]1CCCN(CCCc2ccc3c(n2)NCCC3)C1 [Compound 253-B, 3-((R)-1-(3-(5,6,7,8-tetrahydro-1,8-naphthyridin-2-yl)propyl)piperidine-3-carboxamido)-2-(5,6,7,8-tetrahydronaphthalen-1-yl)propanoic acid]
9 | < 6.00 | 6.00 to 7.00 | O=C(O)C[C@@H](NC(=O)[C@@H]1CCCN(CCCc2ccc3c(n2)NCCC3)C1)c1cccc2c1CCC2 [Compound 211-B, 3-(2,3-dihydro-1H-inden-4-yl)-3-((R)-1-(3-(5,6,7,8-tetrahydro-1,8-naphthyridin-2-yl)propyl)piperidine-3-carboxamido)propanoic acid]
10 | < 6.00 | < 6.00 | CN(C[C@@H]1CCCN(CCCc2ccc3c(n2)NCCC3)C1)[C@@H](CC(=O)O)c1ccccc1 [Compound 293, (S)-3-(methyl(((R)-1-(3-(5,6,7,8-tetrahydro-1,8-naphthyridin-2-yl)propyl)piperidin-3-yl)methyl)amino)-3-phenylpropanoic acid hydrochloride]
11 | > 7.00 | > 7.00 | O=C(NC[C@H](Nc1cc(C(F)(F)F)ncn1)C(=O)O)[C@@H]1CCCN(CCCc2ccc3c(n2)NCCC3)C1 [Compound 283, (2S)-3-[[(3R)-1-[3-(5,6,7,8-tetrahydro-1,8-naphthyridin-2-yl)propyl]piperidine-3-carbonyl]amino]-2-[[6-(trifluoromethyl)pyrimidin-4-yl]amino]propanoic acid]
12 | > 7.00 | > 7.00 | O=C(NC[C@H](C(=O)O)c1cccc(-c2ccccc2C(F)(F)F)c1)[C@@H]1CCCN(CCCc2ccc3c(n2)NCCC3)C1 [Compound 621]
13 | < 6.00 | < 6.00 | C[C@@H]1C[C@@H](C(=O)NC[C@H](C(=O)O)c2cccc(-c3ccccc3)c2)CN(CCCc2ccc3c(n2)NCCC3)C1 [Compound 630]
14 | 6.00 to 7.00 | 6.00 to 7.00 | C[C@@H]1C[C@H](C(=O)NC[C@@H](C(=O)O)c2ccc3ccccc3c2)CN(CCCc2ccc3c(n2)NCCC3)C1 [Compound 641]
15 | > 7.00 | > 7.00 | CN1CCN(c2cccc([C@H](CC(=O)O)NC(=O)[C@@H]3CCCN(CCCc4ccc5c(n4)NCCC5)C3)c2)CC1 [Compound 228, (S)-3-(3-(4-methylpiperazin-1-yl)phenyl)-3-((R)-1-(3-(5,6,7,8-tetrahydro-1,8-naphthyridin-2-yl)propyl)piperidine-3-carboxamido)propanoic acid]
16 | > 7.00 | 6.00 to 7.00 | O=C(O)C[C@@H](CC(=O)N[C@@H]1CCN(C(=O)CCCc2ccc3c(n2)NCCC3)C1)c1ccccc1 [Compound 417]
17 | < 6.00 | > 7.00 | O=C(O)[C@H](CO[C@@H]1CCCN(CCCCc2ccc3c(n2)NCCC3)C1)Nc1ncnc2ccccc12 [Compound 409]
18 | > 7.00 | > 7.00 | O=C(O)C[C@H](CO[C@@H]1CCCN(CCCc2ccc3c(n2)NCCC3)C1)c1ccnc(C2CC2)c1 [Compound 490]
19 | > 7.00 | > 7.00 | CC1(C)CCCN(c2cccc([C@H](CO[C@@H]3CCCN(CCCc4ccc5c(n4)NCCC5)C3)CC(=O)O)c2)C1 [Compound 572]
20 | > 7.00 | > 7.00 | O=C(NC[C@@H](C(=O)O)c1cccc(Br)c1)[C@@H]1CCCN(CCCc2ccc3c(n2)NCCC3)C1 [Compound 302]
21 | > 7.00 | > 7.00 | O=C(N[C@@H](CNC(=O)[C@@H]1CCCN(CCCc2ccc3c(n2)NCCC3)C1)C(=O)O)c1cccc(Cl)c1 [Compound 373]

Row | pIC50 (αvβ1) | pIC50 (αvβ6) | Compound
22 | 6.00 to 7.00 | > 7.00 | O=C(O)[C@H](CO[C@@H]1CCCN(CCCCc2ccc3c(n2)NCCC3)C1)NC(=O)C12CCC(CC1)CC2 [Compound 402]
23 | > 7.00 | > 7.00 | O=C(NC[C@H](C(=O)O)c1cccc(-c2cccc(C(F)(F)F)c2)c1)[C@@H]1CCCN(CCCc2ccc3c(n2)NCCC3)C1 [Compound 518]
24 | 6.00 to 7.00 | 6.00 to 7.00 | O=C(O)C[C@@H](NC(=O)[C@@H]1CCCN(CCCc2ccc3c(n2)NCCC3)C1)c1ccc2c(c1)C1(CC2)CC1 [Compound 328]
25 | > 7.00 | > 7.00 | C[C@@H]1CN(c2cccc([C@H](CNC(=O)[C@@H]3CCCN(CCCc4ccc5c(n4)NCCC5)C3)C(=O)O)c2)C[C@@H](C)O1 [Compound 605]
26 | > 7.00 | > 7.00 | O=C(O)CC(NC(=O)[C@@H]1CCCN(CCCc2ccc3c(n2)NCCC3)C1)c1cccc2c1OCO2 (stereo partly drawn) [Compound 218, 3-(benzo[d][1,3]dioxol-4-yl-3-((R)-1-(3-(5,6,7,8-tetrahydro-1,8-naphthyridin-2-yl)propyl)piperidine-3-carboxamido)propanoic acid hydrochloride]
27 | > 7.00 | > 7.00 | O=C(NC[C@H](C(=O)O)c1cccc2c1cnn2CC1CC1)[C@@H]1CCCN(CCCc2ccc3c(n2)NCCC3)C1 [Compound 315]
28 | < 6.00 | < 6.00 | O=C(O)[C@@H](c1ccccc1)[C@H](O)CO[C@@H]1CCCN(CCCc2ccc3c(n2)NCCC3)C1 [Compound 609]
29 | 6.00 to 7.00 | 6.00 to 7.00 | O=C(NC[C@@H](C(=O)O)c1cccc(Oc2ccccc2)c1)[C@@H]1CCCN(CCCc2ccc3c(n2)NCCC3)C1 [Compound 251-A]
30 | < 6.00 | < 6.00 | O=C(O)C(c1ccccc1)C(O)CO[C@@H]1CCCN(CCCc2ccc3c(n2)NCCC3)C1 (stereo partly drawn) [Compound 610]
31 | > 7.00 | > 7.00 | O=C(O)CC(NC(=O)[C@@H]1CCCN(CCCc2ccc3c(n2)NCCC3)C1)c1cc(Cl)cc(C(F)(F)F)c1 (stereo partly drawn) [Compound 222, 3-(3-chloro-5-(trifluoromethyl)phenyl)-3-((R)-1-(3-(5,6,7,8-tetrahydro-1,8-naphthyridin-2-yl)propyl)piperidine-3-carboxamido)propanoic acid hydrochloride]
32 | > 7.00 | > 7.00 | O=C(O)C[C@@H](NC(=O)[C@@H]1CCCN(CCCc2ccc3c(n2)NCCC3)C1)c1ccc2c(c1)CCCC2 (single isomer, unassigned) [Compound 204-B]
33 | > 7.00 | > 7.00 | O=C(NC[C@H](Nc1ncnc2cc(F)c(F)cc12)C(=O)O)[C@@H]1CCCN(CCCc2ccc3c(n2)NCCC3)C1 [Compound 278, (2S)-2-[(6,7-difluoroquinazolin-4-yl)amino]-3-[[(3R)-1-[3-(5,6,7,8-tetrahydro-1,8-naphthyridin-2-yl)propyl]piperidine-3-carbonyl]amino]propanoic acid]
34 | > 7.00 | > 7.00 | O=C(O)[C@H](CO[C@@H]1CCCN(CCCc2ccc3c(n2)NCCC3)C1)NC(=O)C12CCC(CC1)CC2 [Compound 400]
35 | 6.00 to 7.00 | > 7.00 | O=C(O)[C@H](CCO[C@@H]1CCCN(CCCc2ccc3c(n2)NCCC3)C1)Nc1ncnc2cc(F)c(F)cc12 [Compound 474]
36 | < 6.00 | < 6.00 | O=C(O)C(CCO[C@@H]1CCCN(CCCc2ccc3c(n2)NCCC3)C1)c1ccnc(-c2ccccc2)c1 (stereo partly drawn) [Compound 505]
37 | < 6.00 | < 6.00 | O=C(CC[C@@H](NC(=O)C12CCC(CC1)CC2)C(=O)O)N[C@H]1CCN(CCCCc2ccc3c(n2)NCCC3)C1 [Compound 431]
38 | > 7.00 | 6.00 to 7.00 | O=C(O)C(CNC(=O)[C@@H]1CCCN(CCCc2ccc3c(n2)NCCC3)C1)c1ccc(C2CC2)cc1 (single isomer, unassigned) [Compound 259-B]
39 | > 7.00 | > 7.00 | O=C(O)[C@H](CCO[C@@H]1CCCN(CCCc2ccc3c(n2)NCCC3)C1)c1ccc(C2CC2)cc1 [Compound 516]
40 | > 7.00 | > 7.00 | Cc1csc2c(N[C@@H](CNC(=O)[C@@H]3CCCN(CCCc4ccc5c(n4)NCCC5)C3)C(=O)O)ncnc12 [Compound 277, (2S)-2-[(7-methylthieno[3,2-d]pyrimidin-4-yl)amino]-3-[[(3R)-1-[3-(5,6,7,8-tetrahydro-1,8-naphthyridin-2-yl)propyl]piperidine-3-carbonyl]amino]propanoic acid]
41 | 6.00 to 7.00 | < 6.00 | O=C(NC[C@H](C(=O)O)c1cccc2n[nH]cc12)[C@@H]1CCCN(CCCc2ccc3c(n2)NCCC3)C1 [Compound 318]
42 | > 7.00 | > 7.00 | O=C(O)[C@@H](CCO[C@@H]1CCCN(CCCc2ccc3c(n2)NCCC3)C1)c1cccc2nn(CC3CC3)cc12 [Compound 487]
